We go through seven compounds from ChEMBL document CHEMBL1126863 (J Med Chem, 1993).

Assay [1] concerns the target T1, Substance-P receptor (Cavia porcellus, UniProt P30547). As to the kind of experiment: Evaluated for the binding affinity towards NK1 receptor in the striatal membranes of guinea pig. In kind it is cell membranes, Striatum, Membrane.
Assay [2] deals with Substance-P receptor (Cavia porcellus) (UniProt P30547). The following applies: Striatum, Membrane, 10 uM.
Target sequence in this assay (P30547 whole entry): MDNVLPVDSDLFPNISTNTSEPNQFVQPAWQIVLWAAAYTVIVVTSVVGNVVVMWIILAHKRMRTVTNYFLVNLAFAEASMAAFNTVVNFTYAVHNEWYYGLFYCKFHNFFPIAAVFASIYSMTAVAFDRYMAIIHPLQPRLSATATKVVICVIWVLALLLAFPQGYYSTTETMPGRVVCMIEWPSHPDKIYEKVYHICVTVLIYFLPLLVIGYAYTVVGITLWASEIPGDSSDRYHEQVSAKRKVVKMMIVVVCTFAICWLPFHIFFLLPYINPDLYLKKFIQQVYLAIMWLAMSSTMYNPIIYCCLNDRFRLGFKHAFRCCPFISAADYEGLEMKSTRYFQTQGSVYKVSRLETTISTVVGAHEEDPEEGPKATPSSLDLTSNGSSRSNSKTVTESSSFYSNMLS
Description: Evaluated for the binding affinity towards NK1 receptor in the striatal membranes of guinea pig at 10 uM
For assay [3], the target named is T1, Substance-P receptor. Description: Evaluated for the binding affinity against NK1 receptor.
In assay [4] the target is Substance-P receptor (Cavia porcellus) (UniProt P30547). Description: Evaluated for the binding affinity against NK1 receptor at 1 uM.
Target sequence in this assay (P30547 whole entry, looked up): as the sequence (P30547 whole entry) above
Assay [5] has the same target. As to the kind of experiment: Evaluated for the binding affinity against NK1 receptor.
Target sequence in this assay (P30547 whole entry, looked up): as the sequence (P30547 whole entry) above

Square brackets hold non-standard residues; d marks the D form. Peptide text beside a SMILES is read from it. pGlu = O=C1CC[C@@H](C(=O)O)N1

T1 sequence (P30547 whole entry): as above

Turning to `[3H]c1cc([3H])cc([C@@H]2NCCC[C@@H]2NCc2ccccc2OC)c1`, the affinity on Substance-P receptor [1], expressed as Kd, was 0.32 nM. `COc1ccccc1CN[C@@H]1CCCN[C@@H]1c1ccccc1`: the inhibition (usually the relative decrease from the control value, in per cent) in assay [2] turned out to be 50%. For the compound `CC(C)C[C@H](NC(=O)CN(C)C(=O)[C@H](Cc1ccccc1)NC(=O)[C@H](Cc1ccccc1)NC(=O)[C@H](CCC(N)=O)NC(=O)[C@H](CCC(N)=O)NC(=O)[C@@H]1CCCN1C(=O)[C@H](CCCCN)NC(=O)[C@@H]1CCCN1C(=O)[C@@H](N)CCCNC(=N)N)C(=O)N[C@@H](CCS(C)(=O)=O)C(N)=O`, the Ki (commonly the equilibrium dissociation constant of an inhibitor or competing ligand from its target) at Substance-P receptor [3] turned out to be 20 nM.

On Substance-P receptor [1], `COc1ccccc1CN[C@H]1CCCN[C@H]1c1ccccc1` (stereo in doubt; 6b) [CP-99994] came in with a Ki of 0.27 nM. Take `CC[C@H](C)[C@H](NC(=O)[C@H](Cc1ccccc1)NC(=O)[C@H](C)NC(=O)[C@H](CC(=O)O)NC(=O)[C@H](CCCCN)NC(=O)[C@H](CO)NC(=O)[C@@H]1CCCN1C(=O)[C@@H]1CCC(=O)N1)C(=O)NCC(=O)N[C@@H](CC(C)C)C(=O)N[C@@H](CCSC)C(N)=O` ([pGlu]PSKDAFIGLM-NH2): in assay [4], the inhibition was determined as 15%.

In the case of `CSCC[C@H](NC(=O)[C@H](CC(C)C)NC(=O)CNC(=O)[C@@H](NC(=O)[C@H](Cc1ccccc1)NC(=O)[C@H](CO)NC(=O)[C@H](CC(=O)O)NC(=O)[C@@H](NC(=O)[C@H](CCCCN)NC(=O)[C@@H](N)Cc1cnc[nH]1)[C@@H](C)O)C(C)C)C(N)=O` [NEUROKININ A], in assay [5], the inhibition constant (Ki) turned out to be 3700 nM. Regarding `COc1ccccc1CN[C@H]1CCCN[C@H]1c1ccccc1` (stereo in doubt; 5) [CP-99994], the Ki on Substance-P receptor [1] was determined as 0.17 nM.
